Reference: patent US20260176320A1, “MODULATORS OF G-PROTEIN COUPLED RECEPTORS” (priority 2018, published 2026)
Read-outs that look alike come from different tables or passages of the source.

What was measured:
GLP-1R = GLP-1R (Homo sapiens, UniProt P43220); assay: HitHunter cAMP assay (GLP-1R); assay type: cell-based; settings: cAMP; for Emax: read-out: (Emax) GLP-1R; for EC50: read-out: EC50 GLP-1R/nM
How it was run: (§1)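 Agonist stimulation lasts 30 min at room temperature on 10,000 cells per well, with phosphodiesterase blocked by 625 μM IBMX. Accumulated cAMP is quantified by competitive antibody luminescence after overnight development.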

GIP-R = target: T1, GIP-R (Homo sapiens, UniProt P48546); assay: HitHunter cAMP assay (GIP-R); assay type: cell-based; settings: cAMP; for Emax: read-out: (Emax) GIP-R; for EC50: read-out: EC50 GIP-R/nM
T1 sequence (P48546 22-466): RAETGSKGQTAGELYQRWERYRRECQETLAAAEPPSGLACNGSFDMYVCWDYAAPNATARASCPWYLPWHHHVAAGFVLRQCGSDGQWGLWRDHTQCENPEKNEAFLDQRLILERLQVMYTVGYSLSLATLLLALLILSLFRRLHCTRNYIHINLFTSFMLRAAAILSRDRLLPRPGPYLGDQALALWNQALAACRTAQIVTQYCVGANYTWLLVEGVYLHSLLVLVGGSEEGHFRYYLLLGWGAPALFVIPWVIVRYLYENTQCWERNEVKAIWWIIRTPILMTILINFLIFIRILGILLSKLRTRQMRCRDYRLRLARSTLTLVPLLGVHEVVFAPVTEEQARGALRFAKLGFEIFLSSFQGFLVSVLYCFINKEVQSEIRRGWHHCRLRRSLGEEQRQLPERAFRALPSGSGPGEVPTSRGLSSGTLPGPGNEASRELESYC
How it was run: as §1

GLP-1R, sequence (P43220 24-463): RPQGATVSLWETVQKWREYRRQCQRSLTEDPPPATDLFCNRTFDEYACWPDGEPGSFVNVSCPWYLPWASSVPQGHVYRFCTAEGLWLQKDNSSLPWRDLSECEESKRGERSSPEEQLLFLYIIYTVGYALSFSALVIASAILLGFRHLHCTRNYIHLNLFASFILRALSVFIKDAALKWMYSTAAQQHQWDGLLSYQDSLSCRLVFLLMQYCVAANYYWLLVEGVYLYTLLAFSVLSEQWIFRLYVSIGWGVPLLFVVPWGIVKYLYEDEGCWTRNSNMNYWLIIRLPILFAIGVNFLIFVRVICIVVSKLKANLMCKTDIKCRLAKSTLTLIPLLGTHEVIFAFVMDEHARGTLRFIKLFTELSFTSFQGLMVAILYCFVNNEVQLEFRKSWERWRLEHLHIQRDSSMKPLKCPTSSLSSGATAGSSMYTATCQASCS

| Structure (SMILES) | Emax (GLP-1R; Table 3) [%] | EC50 (GLP-1R; Table 3) [nM] | Emax (GLP-1R; Table 3A) [%] | EC50 (GLP-1R; Table 3A) [nM] | Emax (GIP-R; Table 3) [%] | EC50 (GIP-R; Table 3) [nM] | Emax (GIP-R; Table 3A) [%] | EC50 (GIP-R; Table 3A) [nM] | Emax at 1 µM (GIP-R; read-out: (Emax) GIP-R at 1 μM, Table 3, at 1 μM) [%] |
| --- | --- | --- | --- | --- | --- | --- | --- | --- | --- |
| CCCCCCCCCCCCCCCC(=O)N[C@@H](CCC(=O)NCCCC[C@H](NC(=O)[C@H](CO)NC(=O)[C@@H]1CCCN1C(=O)[C@@H]1CCCN1C(=O)[C@@H]1CCCN1C(=O)[C@H](C)NC(=O)CNC(=O)[C@H](CO)NC(=O)[C@H](CO)NC(=O)[C@@H]1CCCN1C(=O)CNC(=O)CNC(=O)[C@H](C)NC(=O)[C@H](CC(C)C)NC(=O)[C@H](CC(C)C)NC(=O)[C@H](Cc1c[nH]c2ccccc12)NC(=O)[C@H](CC(N)=O)NC(=O)[C@@H](NC(=O)[C@H](Cc1ccccc1)NC(=O)[C@H](CCC(=O)O)NC(=O)C(C)(C)NC(=O)[C@H](C)NC(=O)[C@H](C)NC(=O)[C@H](CCC(N)=O)NC(=O)[C@H](CCCCN)NC(=O)[C@H](CC(=O)O)NC(=O)[C@H](CC(C)C)NC(=O)[C@H](Cc1ccc(O)cc1)NC(=O)[C@@H](NC(=O)[C@H](CO)NC(=O)[C@H](Cc1ccc(O)cc1)NC(=O)[C@H](CC(=O)O)NC(=O)[C@H](CO)NC(=O)[C@@H](NC(=O)[C@H](Cc1ccccc1)NC(=O)[C@@H](NC(=O)CNC(=O)[C@H](CCC(=O)O)NC(=O)CSCC(=O)NCCN1C[C@H](O)CC1=O)[C@@H](C)O)[C@@H](C)O)[C@@H](C)CC)C(C)C)C(N)=O)C(=O)O [Compound 50] | 103 | 0.1 to 1 | 103 | 0.1 to 1 | 26 | 1 to 10 | 26 | 10 to 100 | – |
| CCCCCCCCCCCCCCCC(=O)N[C@@H](CCC(=O)NCCCC[C@H](NC(=O)[C@H](CO)NC(=O)[C@@H]1CCCN1C(=O)[C@@H]1CCCN1C(=O)[C@@H]1CCCN1C(=O)[C@H](C)NC(=O)CNC(=O)[C@H](CO)NC(=O)[C@H](CO)NC(=O)[C@@H]1CCCN1C(=O)CNC(=O)CNC(=O)[C@H](C)NC(=O)[C@H](CC(C)C)NC(=O)[C@H](CC(C)C)NC(=O)[C@H](Cc1c[nH]c2ccccc12)NC(=O)[C@H](CC(N)=O)NC(=O)[C@@H](NC(=O)[C@H](Cc1ccccc1)NC(=O)[C@H](CCC(=O)O)NC(=O)C(C)(C)NC(=O)[C@H](C)NC(=O)[C@H](C)NC(=O)[C@H](CCC(N)=O)NC(=O)[C@H](CCCCN)NC(=O)[C@H](CC(=O)O)NC(=O)[C@H](CC(C)C)NC(=O)[C@H](Cc1ccc(O)cc1)NC(=O)[C@@H](NC(=O)[C@H](CO)NC(=O)[C@H](Cc1ccc(O)cc1)NC(=O)[C@H](CC(=O)O)NC(=O)[C@H](CO)NC(=O)[C@@H](NC(=O)[C@H](Cc1ccccc1)NC(=O)[C@@H](NC(=O)CNC(=O)[C@H](CCC(=O)O)NC(=O)CCCNC(=O)CCN1C(=O)CSC1=O)[C@@H](C)O)[C@@H](C)O)[C@@H](C)CC)C(C)C)C(N)=O)C(=O)O [Compound 51] | 98 | 0.1 to 1 | 98 | 0.1 to 1 | 65 | 1 to 10 | 65 | 1 to 10 | – |
| CCCCCCCCCCCCCCCC(=O)N[C@@H](CCC(=O)NCCCC[C@H](NC(=O)[C@H](CO)NC(=O)[C@@H]1CCCN1C(=O)[C@@H]1CCCN1C(=O)[C@@H]1CCCN1C(=O)[C@H](C)NC(=O)CNC(=O)[C@H](CO)NC(=O)[C@H](CO)NC(=O)[C@@H]1CCCN1C(=O)CNC(=O)CNC(=O)[C@H](C)NC(=O)[C@H](CC(C)C)NC(=O)[C@H](CC(C)C)NC(=O)[C@H](Cc1c[nH]c2ccccc12)NC(=O)[C@H](CC(N)=O)NC(=O)[C@@H](NC(=O)[C@H](Cc1ccccc1)NC(=O)[C@H](CCC(=O)O)NC(=O)C(C)(C)NC(=O)[C@H](C)NC(=O)[C@H](C)NC(=O)[C@H](CCC(N)=O)NC(=O)[C@H](CCCCN)NC(=O)[C@H](CC(=O)O)NC(=O)[C@H](CC(C)C)NC(=O)[C@H](Cc1ccc(O)cc1)NC(=O)[C@@H](NC(=O)[C@H](CO)NC(=O)[C@H](Cc1ccc(O)cc1)NC(=O)[C@H](CC(=O)O)NC(=O)[C@H](CO)NC(=O)[C@@H](NC(=O)[C@H](Cc1ccccc1)NC(=O)[C@@H](NC(=O)CNC(=O)[C@H](CCC(=O)O)NC(=O)CSCC(=O)NCCn1ccccc1=O)[C@@H](C)O)[C@@H](C)O)[C@@H](C)CC)C(C)C)C(N)=O)C(=O)O [Compound 52] | 101 | < 0.1 | 101 | < 0.1 | 56 to 61 | 1 to 10 | 56 to 61 | 1 to 10 | – |
| CCCCCCCCCCCCCCCC(=O)N[C@@H](CCC(=O)NCCCC[C@H](NC(=O)[C@H](CO)NC(=O)[C@@H]1CCCN1C(=O)[C@@H]1CCCN1C(=O)[C@@H]1CCCN1C(=O)[C@H](C)NC(=O)CNC(=O)[C@H](CO)NC(=O)[C@H](CO)NC(=O)[C@@H]1CCCN1C(=O)CNC(=O)CNC(=O)[C@H](C)NC(=O)[C@H](CC(C)C)NC(=O)[C@H](CC(C)C)NC(=O)[C@H](Cc1c[nH]c2ccccc12)NC(=O)[C@H](CC(N)=O)NC(=O)[C@@H](NC(=O)[C@H](Cc1ccccc1)NC(=O)[C@H](CCC(=O)O)NC(=O)C(C)(C)NC(=O)[C@H](C)NC(=O)[C@H](C)NC(=O)[C@H](CCC(N)=O)NC(=O)[C@H](CCCCN)NC(=O)[C@H](CC(=O)O)NC(=O)[C@H](CC(C)C)NC(=O)[C@H](Cc1ccc(O)cc1)NC(=O)[C@@H](NC(=O)[C@H](CO)NC(=O)[C@H](Cc1ccc(O)cc1)NC(=O)[C@H](CC(=O)O)NC(=O)[C@H](CO)NC(=O)[C@@H](NC(=O)[C@H](Cc1ccccc1)NC(=O)[C@@H](NC(=O)CNC(=O)[C@@H](CCC(=O)O)NC(=O)CSCC(=O)NCCN1C(=O)CSC1=O)[C@@H](C)O)[C@@H](C)O)[C@@H](C)CC)C(C)C)C(N)=O)C(=O)O [Compound 53] | 99 | 1 to 10 | 99 | 1 to 10 | 62 | 1 to 10 | 62 | 1 to 10 | – |
| CCCCCCCCCCCCCCCC(=O)N[C@@H](CCC(=O)NCCCC[C@H](NC(=O)[C@H](CO)NC(=O)[C@@H]1CCCN1C(=O)[C@@H]1CCCN1C(=O)[C@@H]1CCCN1C(=O)[C@H](C)NC(=O)CNC(=O)[C@H](CO)NC(=O)[C@H](CO)NC(=O)[C@@H]1CCCN1C(=O)CNC(=O)CNC(=O)[C@H](C)NC(=O)[C@H](CC(C)C)NC(=O)[C@H](CC(C)C)NC(=O)[C@H](Cc1c[nH]c2ccccc12)NC(=O)[C@H](CC(N)=O)NC(=O)[C@@H](NC(=O)[C@H](Cc1ccccc1)NC(=O)[C@H](CCC(=O)O)NC(=O)C(C)(C)NC(=O)[C@H](C)NC(=O)[C@H](C)NC(=O)[C@H](CCC(N)=O)NC(=O)[C@H](CCCCN)NC(=O)[C@H](CC(=O)O)NC(=O)[C@H](CC(C)C)NC(=O)[C@H](Cc1ccc(O)cc1)NC(=O)[C@@H](NC(=O)[C@H](CO)NC(=O)[C@H](Cc1ccc(O)cc1)NC(=O)[C@H](CC(=O)O)NC(=O)[C@H](CO)NC(=O)[C@@H](NC(=O)[C@H](Cc1ccccc1)NC(=O)[C@@H](NC(=O)CNC(=O)[C@H](CCC(=O)O)NC(=O)CSCC(=O)NCCC1=CCCC1)[C@@H](C)O)[C@@H](C)O)[C@@H](C)CC)C(C)C)C(N)=O)C(=O)O [Compound 54] | 107 | < 0.1 | 107 | < 0.1 | – | – | – | – | 6 |
